Measurements taken from patent publication US20240254119A1 (THIRD HARMONIC BIO, INC., priority 2022, published 2024).

Columns and labels:
wtKIT [1] = molecular target: T1, wtKIT (Homo sapiens, UniProt P10721); experiment: Caliper biochemical assay, wtKIT; details: Table 6, read-out: KIT Biochemical IC50 avg
T1 construct: 1888289AM in the reaction mixtures
Summary of the method: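 Enzyme (5.0 nM wtKIT), 1 μM FAM-labelled peptide, 400 μM ATP and 10 mM MnCl2 in HEPES pH 7.5 with 1% DMSO, incubated 3 h at 25° C. EDTA quench; substrate and phosphoproduct separated by microfluidic electrophoresis and quantified by fluorescence.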

CSF-1R [2] = molecular target: T2, CSF-1R (Homo sapiens, UniProt P07333); experiment: Caliper biochemical assay, CSF-1R; details: Table 6
T2 construct: purchased Invitrogen PV3249 (lot 662393N)
Summary of the method: (§1)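 Kinase, FAM-labelled peptide substrate, ATP and Mn^2+ incubated with compound for 3 h at 25° C, then quenched with EDTA buffer. Substrate and phosphorylated product separated by microfluidic electrophoresis and quantified by fluorescence intensity; no-enzyme wells define 100% inhibition.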

CYP3A4 = experiment: Hepatocyte CYP induction assay, CYP3A4 gene expression; type: in vitro ADME; details: human hepatocytes, donor two
Experimental: Exemplary compounds were tested for ability to induce CYP3A4 and/or CYP1A2 in hepatocytes. Procedures and results are described below.
Cryopreserved human hepatocytes were purchased from BioIVT (Baltimore, MD, USA), and they were stored in liquid nitrogen before using. The detailed information of hepatocytes is as follows:
Fresh dosing solutions of test compounds, and Rifampicin were prepared in the incubation medium on the day of dosing.
Cryopreserved hepatocytes were thawed and counted to determine yield, viability was measured. Hepatocytes at the concentrations of 0.7 million/mL were transferred to collagen-coated 96-well plates for attachment (0.1 mL viable cells/well). After allowing 4 to 5 hours for attachment of cells, the plating medium was replaced with Incubation Medium containing 2% (v/v) Matrigel™ (sandwich medium) and the hepatocytes were incubated until use.
All incubations were conducted at 37° C., 5% CO2, and saturated humidity.
The sandwich medium was removed and the hepatocytes were treated with incubation solutions containing test articles in vehicle (0.1% DMSO), or positive control for 24 hours after the cultures were established. The incubation solution was aspirated and replaced with incubation solution containing the same concentrations of test articles, vehicle, or positive controls for an additional 24 hours. The total treatment period was 48 hours. Triplicate were used for each concentration of test compound and positive control.
After treatment period of 48 hours, the incubation solution was aspirated. Hepatocytes were washed once with pre-warmed HBSS and incubated with 140 μL of RLT (lysis buffer from Rneasy 96 Kit) supplemented with 1% β-mercaptoethanol. Plates were then stored at ≤−60° C. freezer until RNA analysis.
Before RNA extraction, the frozen plate was thawed and cell lysates were transferred to 96-well plates. RNA isolation was performed using QIAcube HT System. RNA concentration was measured with NanoDrop ND-2000 spectrophotometer. The purity of RNA preparation was calculated by the ratio of the OD260 nm/OD280 nm and the acceptable range is between 1.8 and 2.2. Reverse transcription was performed to obtain cDNA. Quantification of the selective genes by real time quantitative Polymerase Chain Reaction (qPCR) was performed with TaqMan universal PCR Master Mix on the BIO-RAD CFX 384 Touch Real Time PCR System. The following setting were used: 50° C. for 2 minutes, 95° C. for 10 minutes, 40 cycles of 95° C. for 15 seconds and 60° C. for 1 minute. 18S rRNA was used as the internal standard.
To account for variation in RNA yields and reverse transcription polymerase chain reaction (RT-PCR), the gene of interest in all samples was normalized to an internal control gene (18S ribosomal RNA) (Cttarget gene−Ct18S=ΔCt).
The relative quantitation or change in mRNA level of selected genes induced by each test compound was expressed in relation to the vehicle control sample (Δctcompound−ΔCtvehicle=ΔΔCt). Fold changes in gene expression were determined by taking 2 to the power of this value (2^−ΔΔt).
% of positive control [(fold change in treated sample)−1]/[(fold change in positive control)−1]×100

PDGFRα [3] = molecular target: T3, PDGFRα (Homo sapiens, UniProt P16234); experiment: Caliper biochemical assay, PDGFRα; details: Table 6
T3 construct: purchased Millipore 14-467 (lot 26321_ACTI)
Summary of the method: as §1

Kinetic solubility assay = type: physicochemical; details: kinetic solubility, 50 mM PB (pH 7.4), shaken 24 hours at RT
Summary of the method: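 Test compounds from 10 mM DMSO stock were diluted in 50 mM phosphate buffer, pH 7.4, and shaken for 24 h at RT. After PTFE filtration and centrifugation, filtrate concentration was quantified by UPLC-UV/HPLC-UV against a standard curve.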

PDGFRα [4] = molecular target: T3, PDGFRα; experiment: HTRF biochemical assay, PDGFRα; details: Table 4, read-out: PDFGRα Biochemical IC50 avg
Summary of the method: (§2)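 Kinase phosphorylation of a FAM-labelled peptide substrate, with ATP and Mn^2+ cofactors, run for 3 h at 25 °C, with optional enzyme–compound pre-incubation. Reactions were quenched with EDTA, and phosphopeptide was detected by anti-phosphotyrosine antibody HTRF.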

[5] = system: KIT phosphorylation in M-07e cells; experiment: Cell-based KIT phosphorylation in M-07e cells by pKIT ELISA; set-up: species or system human; details: SCF stimulation
Summary of the method: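 Serum-starved M-07e cells (1 × 10^6/mL, overnight) were treated with compounds (8-point 3-fold series from 1 uM) for 2 h at 37 °C, then stimulated with 100 ng/mL SCF for 5 min. Lysate phospho-KIT was captured on anti-phospho-CD117 plates, detected with anti-pY-HRP, and read at 450 nm against a pc-KIT standard curve.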

[6] = molecular target: T4, KIT-NanoLuc fusion in HEK293 cells (Homo sapiens, UniProt P10721); experiment: NanoBRET cellular target engagement assay, KIT; type: cell-based
T4 construct: expressed in transfected cells; host or cells: HEK293, transient transfection
Experimental: Exemplary compounds were tested for their ability to inhibit target engagement of KIT or CSF-1R kinases through competitive displacement of a Nano-Luc luciferase kinase fusion in HEK293 cells.
The NanoBRET target engagement assay employs an energy transfer technique designed to measure molecular proximity in living cells. The assay measures the apparent affinity of test compounds by competitive displacement of the NanoBRET tracer, reversibly bound to a NanoLuc luciferase-kinase fusion construct in cells. The intracellular binding affinity and selectivity are physiologically relevant and fundamental to the pharmacological mechanism of the compounds. While biochemical and biophysical assays identify the kinase inhibitors in vitro, the NanoBRET target engagement assay serves to determine the direct interaction of the compounds binding to target kinases in cells.
HEK293 cells transiently expressing NanoLuc-DDR1 fusion vector were seeded into 384-well plates and treated with the Tracer K-4 and compound for 1 hour. The BRET signal was measured on an EnVision 2104 multilabel microplate reader. NanoBRET Target Engagement Assay in HEK293 cells transiently transfected with KIT and CSF1R-NanoLuc Fusion Vector. HEK293 cells were transfected with […] KIT or CSF1R-NanoLuc Fusion Vector and […] carrier DNA. The transfected cells were treated with test compounds (starting at 10 μM, 10-dose with 3-fold dilution) and reference compound (desatinib) (starting at 1 μM, 10-dose with 3-fold dilution). Percent inhibition due to compound activity was calculated to determine IC50.

CSF-1R [7] = molecular target: T2, CSF-1R; experiment: HTRF biochemical assay, CSF-1R; details: Table 4
Summary of the method: as §2

wtKIT [8] = molecular target: T1, wtKIT; experiment: HTRF biochemical assay, wtKIT (phosphorylation of a peptide substrate); details: Table 4
Summary of the method: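 wtKIT (5.0 nM) phosphorylating 1 µM FAM-labelled peptide with 400 µM ATP and 10 mM MnCl2 in 100 mM HEPES pH 7.5, 1% DMSO, 3 h at 25 °C. EDTA quench; phosphopeptide detected with anti-phosphotyrosine antibody by HTRF. Enzyme titrated for 10-20% substrate conversion.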

T1 sequence (P10721 26-976): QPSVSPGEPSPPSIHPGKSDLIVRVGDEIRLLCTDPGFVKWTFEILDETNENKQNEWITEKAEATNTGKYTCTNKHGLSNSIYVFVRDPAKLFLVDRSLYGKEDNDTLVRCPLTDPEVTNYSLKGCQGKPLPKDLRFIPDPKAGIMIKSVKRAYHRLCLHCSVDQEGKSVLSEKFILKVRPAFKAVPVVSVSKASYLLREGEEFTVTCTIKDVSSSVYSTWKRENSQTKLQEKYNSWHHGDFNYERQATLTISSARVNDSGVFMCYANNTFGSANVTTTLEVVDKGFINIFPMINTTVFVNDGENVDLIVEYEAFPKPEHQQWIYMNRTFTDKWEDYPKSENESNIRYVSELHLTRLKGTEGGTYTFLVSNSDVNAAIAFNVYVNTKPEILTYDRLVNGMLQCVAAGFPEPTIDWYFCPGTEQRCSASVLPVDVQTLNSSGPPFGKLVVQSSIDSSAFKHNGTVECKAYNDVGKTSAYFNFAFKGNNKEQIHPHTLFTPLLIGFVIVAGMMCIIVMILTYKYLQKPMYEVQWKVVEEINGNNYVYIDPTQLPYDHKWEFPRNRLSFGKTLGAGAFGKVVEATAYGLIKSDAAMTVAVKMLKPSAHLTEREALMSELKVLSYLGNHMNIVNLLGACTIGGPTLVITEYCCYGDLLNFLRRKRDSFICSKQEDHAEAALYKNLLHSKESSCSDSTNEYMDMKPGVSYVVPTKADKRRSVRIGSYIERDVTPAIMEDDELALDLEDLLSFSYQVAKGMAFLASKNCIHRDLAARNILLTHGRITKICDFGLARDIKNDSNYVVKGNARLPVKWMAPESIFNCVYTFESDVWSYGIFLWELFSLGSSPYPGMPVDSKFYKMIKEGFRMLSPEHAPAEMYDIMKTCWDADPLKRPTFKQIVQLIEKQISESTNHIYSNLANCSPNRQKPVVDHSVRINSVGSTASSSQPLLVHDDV
T2 sequence (P07333 20-972): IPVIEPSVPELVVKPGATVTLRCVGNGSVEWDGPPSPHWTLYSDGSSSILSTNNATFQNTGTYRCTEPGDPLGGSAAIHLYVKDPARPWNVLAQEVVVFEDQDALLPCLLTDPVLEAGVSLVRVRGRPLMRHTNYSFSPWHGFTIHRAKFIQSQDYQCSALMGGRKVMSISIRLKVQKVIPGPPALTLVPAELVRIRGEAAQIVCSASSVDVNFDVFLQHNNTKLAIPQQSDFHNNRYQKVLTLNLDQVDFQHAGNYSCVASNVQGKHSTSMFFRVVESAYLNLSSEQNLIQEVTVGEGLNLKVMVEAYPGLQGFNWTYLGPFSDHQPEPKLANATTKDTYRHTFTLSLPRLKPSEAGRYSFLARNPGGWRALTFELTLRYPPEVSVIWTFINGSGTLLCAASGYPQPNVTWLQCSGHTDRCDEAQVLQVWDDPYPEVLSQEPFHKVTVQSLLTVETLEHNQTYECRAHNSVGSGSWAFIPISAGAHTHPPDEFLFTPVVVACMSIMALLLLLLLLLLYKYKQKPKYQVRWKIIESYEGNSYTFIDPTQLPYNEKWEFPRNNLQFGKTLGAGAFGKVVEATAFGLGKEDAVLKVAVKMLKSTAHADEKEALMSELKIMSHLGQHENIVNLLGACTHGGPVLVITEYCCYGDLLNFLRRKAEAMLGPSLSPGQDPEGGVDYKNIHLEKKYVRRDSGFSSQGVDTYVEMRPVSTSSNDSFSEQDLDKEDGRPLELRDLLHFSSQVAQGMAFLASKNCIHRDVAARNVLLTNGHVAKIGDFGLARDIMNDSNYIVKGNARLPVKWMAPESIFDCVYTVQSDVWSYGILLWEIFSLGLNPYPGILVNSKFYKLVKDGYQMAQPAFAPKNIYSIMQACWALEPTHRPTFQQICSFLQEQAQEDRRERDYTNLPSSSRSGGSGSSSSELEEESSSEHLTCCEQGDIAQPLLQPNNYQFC
T3 sequence (P16234 24-1089): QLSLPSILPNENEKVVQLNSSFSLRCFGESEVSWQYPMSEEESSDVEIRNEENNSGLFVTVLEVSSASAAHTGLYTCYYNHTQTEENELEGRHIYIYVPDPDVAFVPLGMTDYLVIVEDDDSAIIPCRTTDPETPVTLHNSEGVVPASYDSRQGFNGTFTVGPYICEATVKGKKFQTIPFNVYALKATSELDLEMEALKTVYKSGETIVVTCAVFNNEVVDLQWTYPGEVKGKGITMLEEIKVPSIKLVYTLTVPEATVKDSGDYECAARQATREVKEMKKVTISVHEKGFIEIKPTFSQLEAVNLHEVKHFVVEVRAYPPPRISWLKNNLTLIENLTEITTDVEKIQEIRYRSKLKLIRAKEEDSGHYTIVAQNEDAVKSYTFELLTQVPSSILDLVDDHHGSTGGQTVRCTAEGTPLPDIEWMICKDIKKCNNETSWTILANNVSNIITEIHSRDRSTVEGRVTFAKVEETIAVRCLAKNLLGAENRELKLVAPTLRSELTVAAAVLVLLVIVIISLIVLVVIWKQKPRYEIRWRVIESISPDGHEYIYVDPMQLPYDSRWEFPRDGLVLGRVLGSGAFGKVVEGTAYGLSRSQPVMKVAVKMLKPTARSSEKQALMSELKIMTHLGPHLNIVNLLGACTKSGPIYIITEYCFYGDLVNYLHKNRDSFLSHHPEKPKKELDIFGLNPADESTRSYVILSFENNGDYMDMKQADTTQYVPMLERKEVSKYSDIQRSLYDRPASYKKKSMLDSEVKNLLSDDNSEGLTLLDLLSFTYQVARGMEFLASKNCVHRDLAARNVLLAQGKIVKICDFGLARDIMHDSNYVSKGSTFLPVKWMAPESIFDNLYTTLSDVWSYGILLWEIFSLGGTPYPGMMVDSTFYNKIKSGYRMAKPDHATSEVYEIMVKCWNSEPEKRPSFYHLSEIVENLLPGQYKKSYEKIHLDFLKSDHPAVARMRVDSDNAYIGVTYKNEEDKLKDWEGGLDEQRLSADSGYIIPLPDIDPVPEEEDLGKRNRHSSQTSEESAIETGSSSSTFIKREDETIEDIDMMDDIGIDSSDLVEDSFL
T4 sequence (P10721 26-976): as the sequence (P10721 26-976) above

CCc1nc(-c2ccc(C)c(NC(=O)c3cnc4ccccn34)c2)no1 [Compound I-283]
IC50 (wtKIT [1]): ≤ 50 nM
IC50 (CSF-1R [2]): ≤ 50 nM
CYP 3A4 induction mRNA: Mean fold at 10 μM (CYP3A4): ++++ (induction fold of greater than 10-fold)
IC50 (PDGFRα [3]): 5000 to 30000 nM
Solubility (μM) (Kinetic solubility assay): ** (a solubility greater than 10 μM and less than or equal to 50 μM)

Cc1nc(-c2ccc(C)c(NC(=O)c3cnc4cc(COCCO)ccn34)c2)no1 [Compound I-110]
IC50 (PDGFRα [4]): 500 to 5000 nM
IC50 [5]: 50 to 500 nM
IC50 [6]: ≤ 100 nM
IC50 (CSF-1R [7]): 500 to 5000 nM
IC50 (wtKIT [8]): ≤ 50 nM
Solubility (μM) (Kinetic solubility assay): * (a solubility greater than 50 μM)
